Source: PubChem BioAssay (NCI)
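48-hour exposure; five concentrations; linearly interpolated endpoints. Definition used: TGI = concentration required for complete inhibition of growth.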

Key:
Experiment in all cases: NCI tumour cell line growth inhibition, 48 h
HOP-92 NSCLC = test system: HOP-92 NSCLC
CCRF-CEM leukemia = test system: CCRF-CEM leukemia
M14 melanoma = test system: M14 melanoma
786-0 renal = test system: 786-0 renal
EKVX NSCLC = test system: EKVX NSCLC
SNB-19 CNS = test system: SNB-19 CNS
DU-145 prostate = test system: DU-145 prostate
HOP-62 NSCLC = test system: HOP-62 NSCLC
KM12 colon = test system: KM12 colon
UO-31 renal = test system: UO-31 renal
MALME-3M melanoma = test system: MALME-3M melanoma
T-47D breast = test system: T-47D breast
CAKI-1 renal = test system: CAKI-1 renal
HCC-2998 colon = test system: HCC-2998 colon
SF-539 CNS = test system: SF-539 CNS
U251 CNS = test system: U251 CNS
A498 renal = test system: A498 renal
SF-295 CNS = test system: SF-295 CNS
MDA-MB-231 breast = test system: MDA-MB-231 breast
RPMI-8226 leukemia = test system: RPMI-8226 leukemia
SR leukemia = test system: SR leukemia
RXF 393 renal = test system: RXF 393 renal
SW-620 colon = test system: SW-620 colon
OVCAR-5 ovarian = test system: OVCAR-5 ovarian
OVCAR-4 ovarian = test system: OVCAR-4 ovarian
NCI-H522 lung = test system: NCI-H522 lung
SN12C renal = test system: SN12C renal
NCI-H226 lung = test system: NCI-H226 lung
MDA-MB-435 = test system: MDA-MB-435
MDA-N = test system: MDA-N
K-562 leukemia = test system: K-562 leukemia
SK-MEL-5 melanoma = test system: SK-MEL-5 melanoma
HT29 colon = test system: HT29 colon
NCI-H23 lung = test system: NCI-H23 lung
ACHN renal = test system: ACHN renal
SF-268 CNS = test system: SF-268 CNS
PC-3 prostate = test system: PC-3 prostate
UACC-257 melanoma = test system: UACC-257 melanoma
IGROV1 ovarian = test system: IGROV1 ovarian
HL-60(TB) leukemia = test system: HL-60(TB) leukemia
HCT-116 colon = test system: HCT-116 colon
COLO 205 colon = test system: COLO 205 colon
LOX IMVI melanoma = test system: LOX IMVI melanoma
SK-MEL-28 melanoma = test system: SK-MEL-28 melanoma
BT-549 breast = test system: BT-549 breast
MCF7 breast = test system: MCF7 breast
NCI/ADR-RES ovarian = test system: NCI/ADR-RES ovarian
SK-OV-3 ovarian = test system: SK-OV-3 ovarian
HCT-15 colon = test system: HCT-15 colon
SNB-75 CNS = test system: SNB-75 CNS
OVCAR-3 ovarian = test system: OVCAR-3 ovarian
SK-MEL-2 melanoma = test system: SK-MEL-2 melanoma
TK-10 renal = test system: TK-10 renal
OVCAR-8 ovarian = test system: OVCAR-8 ovarian
MOLT-4 leukemia = test system: MOLT-4 leukemia
HS 578T breast = test system: HS 578T breast
A549 NSCLC = test system: A549 NSCLC
UACC-62 melanoma = test system: UACC-62 melanoma

Measured: TGI

CC(C)=CCC/C(=C\CC/C(=C\CCc1ccoc1)C(=O)O)C(=O)O
> 100 µM: HOP-92 NSCLC | CCRF-CEM leukemia | M14 melanoma | 786-0 renal | EKVX NSCLC | SNB-19 CNS | DU-145 prostate | HOP-62 NSCLC | KM12 colon | UO-31 renal | MALME-3M melanoma | T-47D breast | CAKI-1 renal | HCC-2998 colon | SF-539 CNS | U251 CNS | A498 renal | SF-295 CNS | MDA-MB-231 breast | RPMI-8226 leukemia | SR leukemia | RXF 393 renal | SW-620 colon | OVCAR-5 ovarian | OVCAR-4 ovarian | NCI-H522 lung | SN12C renal | NCI-H226 lung | MDA-MB-435 | MDA-N | K-562 leukemia | SK-MEL-5 melanoma | HT29 colon | NCI-H23 lung | ACHN renal | SF-268 CNS | PC-3 prostate | UACC-257 melanoma | IGROV1 ovarian | HL-60(TB) leukemia | HCT-116 colon | COLO 205 colon | LOX IMVI melanoma | SK-MEL-28 melanoma | BT-549 breast | MCF7 breast | NCI/ADR-RES ovarian | SK-OV-3 ovarian | HCT-15 colon | SNB-75 CNS | OVCAR-3 ovarian | SK-MEL-2 melanoma | TK-10 renal | OVCAR-8 ovarian | MOLT-4 leukemia | HS 578T breast | A549 NSCLC | UACC-62 melanoma
